Results from US20230093131A1, “ASSESSING AND TREATING ALCOHOL-ASSOCIATED LIVER DISEASE” (Mayo Foundation for Medical Education and Research, priority 2020, published 2023).
Entries after “also recorded” stand apart in the source; their conditions may differ.

Legend:
[1] = system: S1P receptors on primary human macrophages; test: EV-activated macrophage inflammation (AH EVs on PBMC-derived macrophages); assay type: cell-based
Method: FIG. 14: EV-activated macrophage inflammation is SIP-dependent. A) TNF-α and B) IL-1β responses in primary human macrophages from AH subjects treated with EVs derived from HD (HD EV) or AH (AH EV) for 4 hours showing a significant increase in both cytokines by AH-EVs.
PBMC-derived macrophages were treated with EVs derived from HD or AH subjects.

NF-κB = test: ChIP-qPCR for NF-κB binding at CXCL super enhancer and CXCL1 promoter sites in LSECs; assay type: cell-based, human; conditions: with and without TNFα, after inhibitor pretreatment, FIG. 20C, 20D
Method: FIG. 20: Bromodomain inhibitors suppress expression of CXCLs by inhibition of transcription factor binding at CXCL super enhancer and promoter sites. A) LSECs were pretreated with iBET151 ([…]) (n=4). CXCL1, 6, and 8 expression levels were assessed by qPCR. Expression levels were normalized to basal condition and log10 fold change values were plotted. One-way matched-pairs ANOVA analysis was performed with Post-hoc Dunnett's multiple comparison correction. B and C) ChIP-qPCR assays for BRD4 binding (B) or NF-κB binding (C) with and without TNFα stimulation was assessed at CXCL super-enhancer and CXCL1 promoter sites after pretreatment with iBET151. D and E) Same experiments were repeated with Celastrol. Enrichment for either CXCL1 promoter (Promoter) or CXCL super enhancer (Super Enhancer) sequence was examined. Sequence enrichment was normalized to input. Box plots show […] quartiles and third quartiles; whiskers show maximum and minimum values. Two-way matched-pairs ANOVA was performed on log-transformed input percentage, with Post-hoc Sidak's multiple comparisons correction (n=3).
LSECs were treated with appropriate conditions as outlined separately, and underwent CHIP according to Millipore High-Sens ChIP kit (Millipore MAGNA0025) manufacture protocols. […]

LSECs = test: iBET151 LSEC cytotoxicity assay (IncuCyte); assay type: cell-based, human; conditions: iBET151 and/or TNFα, ~30 minute intervals for 10 hours, FIG. 22
Method: FIG. 22: iBET151 LSEC cytotoxicity assay. IncuCyte system was utilized to image cells and assess for cytotoxicity. Dying cells (black arrows) are stained green by fluorescent dye, and green cells are counted for each low power image field. Cells were pretreated with control medium or iBET151 and/or TNFα, and quantification for the percentage of dead cells was done at ˜30 minutes intervals for 10 hours starting at 15 minutes. Images shown were acquired after 4 hours of incubation. […] Error bars indicate SD, n=3.

[2] = system: BET proteins (BRD2, 3, 4 and T); conditions: Seal et al., Bioorg. Med. Chem. Lett. 2012; cited from earlier work
LSEC CXCL expression = test: CXCL expression (qPCR) in LSECs pretreated with inhibitor, with or without TNFα stimulation; assay type: cell-based, human
Method: A) LSECs were pretreated with iBET151 (0-50 M) (n=4). CXCL1, 6, and 8 expression levels were assessed by qPCR. Expression levels were normalized to basal condition and log10 fold change values were plotted. One-way matched-pairs ANOVA analysis was performed with Post-hoc Dunnett's multiple comparison correction.
LSECs were pretreated with iBET151 (0-50 M) (n=4). CXCL2, 3, and 5 expression levels were assessed by qPCR. Expression levels were normalized to basal condition and log10 fold change values were plotted. One-way matched-pairs ANOVA analysis was performed with Post-hoc Dunnett's multiple comparison correction. Error bars indicate SD.
Primary human LSECs were purchased from ScienCell (Cat #5000) and cultured using standard cell culture techniques. Where appropriate, LSECs underwent TNFα (Peprotech, 300-01A) stimulation at 20 ng/mL. For experiments with BRD4 inhibitor, iBET151 (Cayman Chemical 11181), low passage LSECs were plated at 70% confluency and cultured overnight. Next, LSECs were serum starved for 2 hours in low serum medium (0.5% FBS in basal endothelial medium (Lonza CC-3121)). Inhibitors were added at concentrations indicated to low-serum medium, and cells were incubated in inhibitor containing medium for 2 hours. After inhibitor treatment, medium change was performed with TNFα (Peprotech 300-01A) at 20 ng/mL or control low-serum medium for 90 minutes incubation. LSECs were then collected for analysis. […] RNA was extracted and qPCR performed for expression of CXCLs.

[3] = system: alcohol fed/LPS C57BL/6 mice; test: Murine chronic alcohol feeding/LPS model with iBET151; assay type: in vivo, mouse
Method: FIG. 23: Bromodomain Inhibitor iBET151 Attenuates Liver CXCL Production and Neutrophil Infiltration in a Murine Alcohol Feeding/LPS Model. A) Schematic of alcohol feeding protocol. Mice were fed 5% alcohol diet or pair-fed control diet for 10 days. A subset of mice also received IP injection of iBET151 compound. Alcohol fed mice also received IP injection of LPS on day 11, 8 hours before sacrifice (n=6-8 in pair-fed groups, n=12-14 in alcohol fed groups). […] This response was attenuated by iBET151 injections. Expression levels were normalized to average expression of pair-fed control mice. C) IHC for MPO (neutrophil marker) is shown, with number of neutrophils per low power fields on y-axis. […] For all analysis, two-way ANOVA was performed on normalized expression values for qPCRs or cell counts for IHC staining or ALT values, with Post-hoc Tukey's multiple comparisons correction.
WT C57BL/6 mice (10-12 weeks) were purchased from Envigo Laboratories. Mice were subjected to chronic alcohol feeding to induce alcohol-induced liver injury with modification to the NIAAA model (see, e.g., Kong et al., Sci. Rep., 7(1):9292 (2017)). Briefly, mice were acclimated to liquid diet for 5 days, and were fed either 5% alcohol containing liquid diet or isocaloric pair-fed control diet. On Day 11, LPS (Invivogen tlrl-eblps) was intraperitoneally (IP) injected at 4 mg/kg to alcohol-fed mice. PBS of the same volume was given to pair-fed mice. All mice were sacrificed 8 hours later. A subset of mice, concurrent with alcohol or pair-feeding, was given injection of iBET151 daily. Mice were injected IP with iBET151 (6 mg/kg) in 10% Kleptose 2% DMSO solution or equal volume of carrier solution. On Day 11, drug or vehicle was administered 1 hour before LPS injection.
To generate an in vivo model with more exaggerated inflammation that could simulate human AH, a protocol of the chronic alcohol feeding model was modified by substituting the alcohol binge with a single LPS injection (FIG. 23A; see, also, Kong et al., Sci. Rep., 7(1):9292 (2017)). […] There was a significant increase in serum alanine aminotransferase (ALT) in alcohol fed/LPS mice (FIG. 23D). To assess the role of super enhancer activation in alcohol fed/LPS induced liver inflammation, the pan-BET inhibitor iBET151 was given to mice as daily IP injections alongside alcohol feeding or LPS injection.

BRD4 = target: T1, BRD4 (Homo sapiens, UniProt O60885); test: ChIP-qPCR for BRD4 binding at CXCL super enhancer and CXCL1 promoter sites in LSECs; assay type: cell-based; conditions: with and without TNFα, after inhibitor pretreatment, FIG. 20B, 20E
T1 construct: Soluble chromatin was aliquoted and immunoprecipitated with magnetic beads with antibodies for BRD4 (Abcam ab128874); host or cells: primary human liver sinusoidal endothelial cells (LSECs)
Method: B and C) ChIP-qPCR assays for BRD4 binding (B) or NF-κB binding (C) with and without TNFα stimulation was assessed at CXCL super-enhancer and CXCL1 promoter sites after pretreatment with iBET151. D and E) Same experiments were repeated with Celastrol. Enrichment for either CXCL1 promoter (Promoter) or CXCL super enhancer (Super Enhancer) sequence was examined. Sequence enrichment was normalized to input. Box plots show top quartiles and third quartiles; whiskers show maximum and minimum values. Two-way matched-pairs ANOVA was performed on log-transformed input percentage, with Post-hoc Sidak's multiple comparisons correction (n=3).
LSECs were treated with appropriate conditions as outlined separately, and underwent CHIP according to Millipore High-Sens ChIP kit (Millipore MAGNA0025) manufacture protocols. Briefly, cells were crosslinked with formaldehyde (1% final concentration) followed by glycine treatment (100 mM) for 5 minutes each. Cells were washed, collected, and pelleted with centrifugation, and were then lysed with cell lysis buffer. Cells were repelleted and underwent nuclear lysis with provided nuclear lysis buffer, and DNA was sheared with ultrasonification. Soluble chromatin was aliquoted and immunoprecipitated with magnetic beads with antibodies for BRD4 (Abcam ab128874), NF-κB (Cell signaling 8242S), or H3K9me3 (Abcam ab8898) with appropriate isotype controls. […]

AH patients = test: EV counts in AH patients after IL-22 treatment; assay type: in vivo, human
Description: (§1) IL-22 is being investigated as a potential therapy in AH due to its hepatoprotective effects. To investigate if IL-22 can inhibit ethanol-induced EV release, HepG2Cyp2E1 (human hepatoma cells that can metabolize ethanol due to the enforced expression of cytochrome P450 2E1) cells were pretreated with IL-22 prior to the addition of ethanol. Subsequently, EVs were isolated from cell culture supernatants by UTC and quantified with NTA. Similarly, IL-22 reduced EV counts in AH patients after treatment.

HepG2Cyp2E1 cells = test: Ethanol-induced EV release from HepG2Cyp2E1 cells (UTC isolation, NTA count); assay type: cell-based, human; conditions: HepG2Cyp2E1 cells pretreated with IL-22 prior to ethanol
Description: as §1

[4] = alcohol fed/LPS mice, iBET151 6 mg/kg IP daily, FIG. 23B

CCCCCCCCc1ccc(CCC(N)(CO)CO)cc1 [FTY720]
AH EV-activated proinflammatory signaling in macrophages ([1]; PBMC-derived macrophages treated with AH EVs): significantly inhibited
TNF-α response to AH EVs ([1]; primary human macrophages from AH subjects, EVs for 4 hours, FTY 720 1 μM, FIG. 14A): significantly reduced
IL-1β response to AH EVs ([1]; primary human macrophages from AH subjects, EVs for 4 hours, FTY 720 1 μM, FIG. 14B): significantly reduced

COc1cc2c(cc1-c1c(C)noc1C)ncc1[nH]c(=O)n([C@H](C)c3ccccn3)c12 [iBET151]
NF-κB binding at CXCL super enhancer and CXCL1 promoter sites (ChIP) (NF-κB): trend for decreased
cytotoxicity (percentage of dead cells) (LSECs): without significant cytotoxicity; also recorded: no significant difference among treatment groups
activity against both bromodomains (BD) of all four BET proteins [2]: highly specific activity
CXCL expression after TNFα stimulation (LSEC CXCL expression; HHSEC pretreated with varying amounts of iBET151, FIG. 18): suppresses
CXCL2, 3, 5 expression (qPCR) (LSEC CXCL expression; LSECs pretreated with iBET151 (0-50 M), with TNFα and without TNFα, FIG. 21): linear trend for decreasing
LSEC CXCL expression (LSEC CXCL expression; in vitro, in the presence of iBET151, FIG. 20A, 21A, iBET151 0-50 M, TNFα 20 ng/mL): significantly decreased
cleaved caspase 3 level in liver (Western blot) ([3]; alcohol fed/LPS mice given iBET151, FIG. 26A): decrease; also recorded: attenuated
hepatic expression of Cxcl1 (qPCR) [3, 4]: significantly decreased
hepatic expression of Cxcl2 (qPCR) [3, 4]: significantly decreased
neutrophil infiltration of the liver (Ly6g expression, MPO IHC) ([3]; alcohol fed/LPS mice, iBET151 6 mg/kg IP daily, FIG. 23B, 23C): decreased
steatosis (BODIPY 493/503 stain) ([3]; alcohol fed/LPS mice, iBET151 6 mg/kg IP daily, FIG. 25, 6 mg/kg): decreased; also recorded: attenuated
liver CXCL chemokine production/elevation (qPCR) ([3]; alcohol feeding and LPS injection, IP iBET151, figure legends FIG. 19, FIG. 23B): attenuated
neutrophil marker Ly6g (qPCR) ([3]; alcohol/LPS mice, IP iBET151, figure legends FIG. 19, FIG. 23B): reduced; also recorded: attenuated
Malondialdehyde (MDA), lipid peroxidation, in mice livers ([3]; pair-fed or EtOH+LPS, vehicle or iBET151, FIG. 26B): no difference among treatment groups
8-Hydroxy-2′-deoxyguanosine (8-OHdG), DNA oxidation, in mice livers ([3]; pair-fed or EtOH+LPS, vehicle or iBET151, FIG. 26C): no difference among treatment groups
BRD4 occupancy/binding at CXCL super enhancer and CXCL1 promoter sites (ChIP) (BRD4): inhibitory effect

B1: IL-22: IL-22 polypeptide, hepatoprotective cytokine investigated as potential therapy in AH (protein, UniProt Q9GZX6 34-179, looked up)
Interleukin-22: APISSHCRLDKSNFQQPYITNRTFMLAKEASLADNNTDVRLIGEKLFHGVSMSERCYLMKQVLNFTLEEVLFPQSDRFQPYMQEVVPFLARLSNRLSTCHIEGDDLHIQRNVQKLKDTVKKLGESGEIKAIGELDLLFMSLRNACI
EV counts in AH patients (AH patients): reduced
ethanol-induced EV release (HepG2Cyp2E1 cells): significantly inhibited
